# Experimental data: ChEMBL document CHEMBL4190322, “Structure-based development of novel triazoles and related thiazolotriazoles as anticancer agents and Cdc25A/B phosphatase inhibitors. Synthesis, in vitro biological evaluation, molecular docking and in silico ADME-T studies” (Eur J Med Chem, 2017)
# Calls of active or inactive are those of the source. No cut-off for these calls is given here.
# Key:
# Assay type in all cases: functional
# Hs-578T = experiment: Growth inhibition of human Hs 578T cells at 10 uM after 48 hrs by SRB assay relative to control
# CCRF-CEM = experiment: Growth inhibition of human CCRF-CEM cells at 10 uM after 48 hrs by SRB assay relative to control; settings: read-out: GI
# HCT-116 = experiment: Growth inhibition of human HCT116 cells at 10 uM after 48 hrs by SRB assay relative to control
# PC-3 = experiment: Growth inhibition of human PC3 cells at 10 uM after 48 hrs by SRB assay relative to control; settings: PC-3, 48 h, read-out: GI
# K562 = experiment: Growth inhibition of human K562 cells at 10 uM after 48 hrs by SRB assay relative to control; settings: K562, 48 h, read-out: GI
# OVCAR-8 = experiment: Growth inhibition of human OVCAR8 cells at 10 uM after 48 hrs by SRB assay relative to control
# RXF 393 = experiment: Growth inhibition of human RXF393 cells at 10 uM after 48 hrs by SRB assay relative to control
# HL-60 = experiment: Growth inhibition of human HL60 cells at 10 uM after 48 hrs by SRB assay relative to control
# SF-268 = experiment: Growth inhibition of human SF268 cells at 10 uM after 48 hrs by SRB assay relative to control
# NCI-H322M = experiment: Growth inhibition of human NCI-H322M cells at 10 uM after 48 hrs by SRB assay relative to control
# SR = experiment: Growth inhibition of human SR cells at 10 uM after 48 hrs by SRB assay relative to control; settings: read-out: GI
# HOP-92 = experiment: Growth inhibition of human HOP92 cells at 10 uM after 48 hrs by SRB assay relative to control; settings: HOP-92, 48 h, read-out: GI
# MDA-MB-468 = experiment: Growth inhibition of human MDA-MB-468 cells at 10 uM after 48 hrs by SRB assay relative to control
# SK-OV-3 = experiment: Growth inhibition of human SKOV3 cells at 10 uM after 48 hrs by SRB assay relative to control; settings: SK-OV-3, 48 h, read-out: GI
# SK-MEL-5 = experiment: Growth inhibition of human SK-MEL-5 cells at 10 uM after 48 hrs by SRB assay relative to control
# UACC-62 = experiment: Growth inhibition of human UACC62 cells at 10 uM after 48 hrs by SRB assay relative to control
# Malme-3M = experiment: Growth inhibition of human MALME-3M cells at 10 uM after 48 hrs by SRB assay relative to control
# HOP-62 = experiment: Growth inhibition of human HOP62 cells at 10 uM after 48 hrs by SRB assay relative to control
# LOX IMVI = experiment: Growth inhibition of human LOXIMVI cells at 10 uM after 48 hrs by SRB assay relative to control; settings: read-out: GI
# 786-0 = experiment: Growth inhibition of human 786-0 cells at 10 uM after 48 hrs by SRB assay relative to control
# SNB-19 = experiment: Growth inhibition of human SNB19 cells at 10 uM after 48 hrs by SRB assay relative to control; settings: SNB-19, 48 h, read-out: GI
# OVCAR-3 = experiment: Growth inhibition of human OVCAR3 cells at 10 uM after 48 hrs by SRB assay relative to control
# MCF7 = experiment: Growth inhibition of human MCF7 cells at 10 uM after 48 hrs by SRB assay relative to control; settings: MCF7, 48 h, read-out: GI
# UO-31 = experiment: Growth inhibition of human UO31 cells at 10 uM after 48 hrs by SRB assay relative to control; settings: UO-31, 48 h, read-out: GI
# NCI-H226 = experiment: Growth inhibition of human NCI-H226 cells at 10 uM after 48 hrs by SRB assay relative to control
# NCI-H23 = experiment: Growth inhibition of human NCI-H23 cells at 10 uM after 48 hrs by SRB assay relative to control; settings: NCI-H23, 48 h, read-out: GI
# HT-29 = experiment: Growth inhibition of human HT-29 cells at 10 uM after 48 hrs by SRB assay relative to control
# OVCAR-4 = experiment: Growth inhibition of human OVCAR4 cells at 10 uM after 48 hrs by SRB assay relative to control
# U-251 = experiment: Growth inhibition of human U251 cells at 10 uM after 48 hrs by SRB assay relative to control; settings: U-251, 48 h, read-out: GI
# MOLT-4 = experiment: Growth inhibition of human MOLT4 cells at 10 uM after 48 hrs by SRB assay relative to control; settings: MOLT-4, 48 h, read-out: GI
# A498 = experiment: Growth inhibition of human A498 cells at 10 uM after 48 hrs by SRB assay relative to control
# RPMI-8226 = experiment: Growth inhibition of human RPMI8226 cells at 10 uM after 48 hrs by SRB assay relative to control; settings: RPMI-8226, 48 h, read-out: GI
# UACC-257 = experiment: Growth inhibition of human UACC257 cells at 10 uM after 48 hrs by SRB assay relative to control
# NCI/ADR-RES = experiment: Growth inhibition of human NCI/ADR-RES cells at 10 uM after 48 hrs by SRB assay relative to control; settings: read-out: GI
# NCI-H522 = experiment: Growth inhibition of human NCI-H522 cells at 10 uM after 48 hrs by SRB assay relative to control; settings: NCI-H522, 48 h, read-out: GI
# CAKI-1 = experiment: Growth inhibition of human Caki1 cells at 10 uM after 48 hrs by SRB assay relative to control; settings: CAKI-1, 48 h, read-out: GI
# KM12 = experiment: Growth inhibition of human KM12 cells at 10 uM after 48 hrs by SRB assay relative to control; settings: KM12, 48 h, read-out: GI
# A549 = experiment: Growth inhibition of human A549 cells at 10 uM after 48 hrs by SRB assay relative to control; settings: A549, 48 h, read-out: GI
# SNB-75 = experiment: Growth inhibition of human SNB75 cells at 10 uM after 48 hrs by SRB assay relative to control; settings: SNB-75, 48 h, read-out: GI
# SK-MEL-2 = experiment: Growth inhibition of human SK-MEL-2 cells at 10 uM after 48 hrs by SRB assay relative to control
SMILES,growth inhibition (GI) (Hs-578T),inhibition of growth at 10 µM (CCRF-CEM),inhibition of growth at 10 µM (PC-3),inhibition of growth at 10 µM (K562),growth inhibition (GI) (OVCAR-8),growth inhibition (GI) (HL-60),inhibition of growth at 10 µM (SR),inhibition of growth at 10 µM (HOP-92),growth inhibition (GI) (MDA-MB-468),inhibition of growth at 10 µM (SK-OV-3),growth inhibition (GI) (UACC-62),growth inhibition (GI) (Malme-3M),inhibition of growth at 10 µM (LOX IMVI),inhibition of growth at 10 µM (SNB-19),growth inhibition (GI) (OVCAR-3),inhibition of growth at 10 µM (MCF7),inhibition of growth at 10 µM (UO-31),inhibition of growth at 10 µM (NCI-H23),inhibition of growth at 10 µM (U-251),inhibition of growth at 10 µM (MOLT-4),further results
COc1ccc(Cc2nnc3sc(SCc4ccccc4)nn23)cc1,inactive,25.1%,6%,12.4%,inactive,inactive,12.9%,27.6%,inactive,1.1%,inactive,inactive,15.8%,10.6%,inactive,5.28%,20.6%,7.22%,2.8%,11.6%,"inhibition of growth at 10 µM (HCT-116; HCT-116, 48 h, read-out: GI): 1.27%; growth inhibition (GI) (RXF 393): inactive; inhibition of growth at 10 µM (SF-268; SF-268, 48 h, read-out: GI): 2.02%; growth inhibition (GI) (NCI-H322M): inactive; growth inhibition (GI) (SK-MEL-5): inactive; growth inhibition (GI) (HOP-62): inactive; inhibition of growth at 10 µM (786-0; 786-0, 48 h, read-out: GI): 6.46%; inhibition of growth at 10 µM (NCI-H226; NCI-H226, 48 h, read-out: GI): 14%; growth inhibition (GI) (HT-29): inactive; inhibition of growth at 10 µM (OVCAR-4; OVCAR-4, 48 h, read-out: GI): 8.58%; inhibition of growth at 10 µM (A498; A498, 48 h, read-out: GI): 19.7%; inhibition of growth at 10 µM (RPMI-8226): 2.01%; growth inhibition (GI) (UACC-257): inactive; inhibition of growth at 10 µM (NCI/ADR-RES): 3.11%; inhibition of growth at 10 µM (NCI-H522): 16.8%; inhibition of growth at 10 µM (CAKI-1): 5.66%; inhibition of growth at 10 µM (KM12): 6%; inhibition of growth at 10 µM (A549): 3.43%; inhibition of growth at 10 µM (SNB-75): 11%; growth inhibition (GI) (SK-MEL-2): inactive"
COc1ccc(Cc2nnc3sc(SCC(=O)Nc4ccc(C)cc4)nn23)cc1,inactive,7.47%,11.5%,7.25%,inactive,inactive,7.23%,23.8%,inactive,4.35%,inactive,inactive,16.7%,3.61%,inactive,5.79%,13.6%,3.12%,6.5%,2.19%,"growth inhibition (GI) (HCT-116): inactive; inhibition of growth at 10 µM (RXF 393; RXF 393, 48 h, read-out: GI): 1.65%; growth inhibition (GI) (SF-268): inactive; inhibition of growth at 10 µM (NCI-H322M; read-out: GI): 3.14%; inhibition of growth at 10 µM (SK-MEL-5; SK-MEL-5, 48 h, read-out: GI): 1.64%; inhibition of growth at 10 µM (HOP-62; HOP-62, 48 h, read-out: GI): 2%; growth inhibition (GI) (786-0): inactive; growth inhibition (GI) (NCI-H226): inactive; inhibition of growth at 10 µM (HT-29; HT-29, 48 h, read-out: GI): 1.67%; growth inhibition (GI) (OVCAR-4): inactive; growth inhibition (GI) (A498): inactive; inhibition of growth at 10 µM (RPMI-8226): 1.58%; growth inhibition (GI) (UACC-257): inactive; inhibition of growth at 10 µM (NCI/ADR-RES): 3.81%; inhibition of growth at 10 µM (NCI-H522): 12.2%; inhibition of growth at 10 µM (CAKI-1): 11.9%; inhibition of growth at 10 µM (KM12): 3.51%; inhibition of growth at 10 µM (A549): 2.5%; inhibition of growth at 10 µM (SNB-75): 12%; inhibition of growth at 10 µM (SK-MEL-2; SK-MEL-2, 48 h, read-out: GI): 14.8%"
